In experiment [1] the test system is Mus musculus. Kind of experiment: % Pu(IV) retained after 24 hours in kidneys of mice under the effect of 30uM/kg(po, gastric intubation) of ligand administered 3 min after iv injection of Pu(IV) citrate. It is filed as functional, Kidney.
In experiment [2] the test system is Mus musculus. Kind of experiment: % Pu(IV) retained after 24 hours in liver of mice under the effect of 30uM/kg(po, gastric intubation) of ligand administered 3 min after iv injection of Pu(IV) citrate. In kind it is functional.
Experiment [3] concerns Mus musculus. Kind of experiment: Percent of Pu(IV) retained after 24 hours in liver of mice under the effect of 30 umol/kg (i.p.) of ligand administered 1 hr after iv injection of Pu(IV) citrate. In kind it is functional.
For experiment [4], the system named is Mus musculus. Kind of experiment: % Pu(IV) excreted at 4-24 hr in urine under the effect of 30uM/kg(po, gastric intubation) of ligand administered 3 min after iv injection of Pu(IV) citrate.
Experiment [5] deals with Mus musculus. Kind of experiment: % Pu(IV) retained after 24 hours in skeleton of mice under the effect of 30uM/kg(po, gastric intubation) of ligand administered 3 min after iv injection of Pu(IV) citrate. In kind it is functional.
For experiment [6], the system named is Mus musculus. Kind of experiment: % Pu(IV) retained after 24 hr in whole body of mice under the effect of 30uM/kg(po, gastric intubation) of ligand administered 3 min after iv injection of Pu(IV) citrate. In kind it is functional.
Experiment [7] has as its system Mus musculus. Kind of experiment: %Pu(IV) excreted after 24 hr in GI contents and feces under the effect of 30uM/kg(po, gastric intubation) of ligand administered 3 min after iv injection of Pu(IV) citrate. It is filed as functional.
In experiment [8] the test system is Mus musculus. Kind of experiment: % Pu(IV) retained after 24 hours in soft tissue of mice under the effect of 30uM/kg(po, gastric intubation) of ligand administered 3 min after iv injection of Pu(IV) citrate. It is filed as functional.
Experiment [9] deals with Mus musculus. Kind of experiment: Percent of Pu(IV) excreted after 24 hours in GI contents and feces under the effect of 30 umol/kg (i.p.) of ligand administered 1 hr after iv injection of Pu(IV) citrate. It is filed as functional.
The subject of experiment [10] is Mus musculus. Kind of experiment: % Pu(IV) excreted at 0-4 hr in urine under the effect of 30uM/kg(po, gastric intubation) of ligand administered 3 min after iv injection of Pu(IV) citrate. It is filed as functional.
Experiment [11] relates to Mus musculus. Kind of experiment: Percent of Pu(IV) retained after 24 hours in soft tissue of mice under the effect of 30 umol/kg (i.p.) of ligand administered 1 hr after iv injection of Pu(IV) citrate. It is filed as functional.
For experiment [12], the system named is Mus musculus. Kind of experiment: Percent of Pu(IV) excreted after 24 hours in urine under the effect of 30 umol/kg (i.p.) of ligand administered 1 hr after iv injection of Pu(IV) citrate. In kind it is functional.
The subject of experiment [13] is Mus musculus. Kind of experiment: Percent of Pu(IV) retained after 24 hours in kidneys of mice under the effect of 30 umol/kg (i.p.) of ligand administered 1 hr after iv injection of Pu(IV) citrate. It is filed as functional, Kidney.
Experiment [14] deals with Mus musculus. Kind of experiment: Percent of Pu(IV) retained after 24 hours in whole body of mice under the effect of 30 umol/kg (i.p.) of ligand administered 1 hr after iv injection of Pu(IV) citrate. In kind it is functional.
Experiment [15] concerns Mus musculus. Kind of experiment: Percent of Pu(IV) retained after 24 hours in skeleton of mice under the effect of 30 umol/kg (i.p.) of ligand administered 1 hr after iv injection of Pu(IV) citrate. It is filed as functional.

Each structure is given as a SMILES string.

In the case of `Cn1ccc(C(=O)NCCN(CCCCN(CCNC(=O)c2ccn(C)c(=O)c2O)CCNC(=O)c2ccn(C)c(=O)c2O)CCNC(=O)c2ccn(C)c(=O)c2O)c(O)c1=O`, the ID in [1] was 1.3%; in [2], 17%; in experiment [3], 14%; in [4], 39%; in experiment [5], 13%; in experiment [6] it was 32%. For the same compound, the ID in experiment [7] was 8.6%; in [8], 1.8%; in experiment [9], 25%; in experiment [10], 20%; in [11], 2.1%; in experiment [12], 47%. Besides, the figures for the ID in [13], in [14] and in experiment [15] were 1.8%, 29% and 11%, respectively.

As for `Cn1ccc(C(=O)NCCCN(CCCNC(=O)c2ccn(C)c(=O)c2O)CCCNC(=O)c2ccn(C)c(=O)c2O)c(O)c1=O`, the ID in experiment [1] worked out at 0.7%; in experiment [2], 28%; in experiment [3], 17%; in experiment [4], 3.6%; in experiment [5] it was 28%; in experiment [6] it was 60%. In addition, the ID in [7] was found to be 36%; in experiment [8], 4.3%; in experiment [9], 12%; in experiment [10], 1.8%; in experiment [11], 2%; in experiment [12], 55%. The ID in experiment [13] worked out at 0.7%; in experiment [14], 33%; in experiment [15], 14%.

For the compound `Cn1ccc(C(=O)NCCN(CCCN(CCNC(=O)c2ccn(C)c(=O)c2O)CCNC(=O)c2ccn(C)c(=O)c2O)CCNC(=O)c2ccn(C)c(=O)c2O)c(O)c1=O`, the ID in experiment [1] is reported as 1.2%; in experiment [2], 13%; in experiment [3] it was 10%; in experiment [4], 33%; in [5] it was 13%; in experiment [6], 30%. The ID is 22% in experiment [7]; 3.1% in experiment [8]; 41% in [9]; 16% in [10]; 2.7% in experiment [11]; 34% in [12]. Also, the results for the ID in experiment [13], in [14] and in [15] were 1.6%, 24% and 9.9%, respectively.

Take `Cn1ccc(C(=O)NCCCNC(=O)c2ccn(C)c(=O)c2O)c(O)c1=O`: the ID in [1] is listed as 0.8%; in experiment [2], 33%; in experiment [3], 9.5%; in experiment [4], 11%; in experiment [5], 27%; in [6], 66%. Moreover, the ID in experiment [7] is 7.9%; in experiment [8] it was 5%; in experiment [9] it was 41%; in experiment [10], 16%; in experiment [11], 2.6%; in [12], 32%. In addition, the ID was 0.5% in [13], 27% in [14] and 14% in [15].

For `O=C(NCc1cc(CNC(=O)c2cccc(=O)n2O)cc(CNC(=O)c2cccc(=O)n2O)c1)c1cccc(=O)n1O`, the ID in [3] amounted to 18%; in experiment [9], 43%; in experiment [11], 10%; in experiment [12] it was 9.6%; in [13], 1.8%; in experiment [14] it was 47%. Also, the ID in experiment [15] was 17%.

Consider `Cn1ccc(C(=O)NCCN(CCNC(=O)c2ccn(C)c(=O)c2O)CCNC(=O)c2ccn(C)c(=O)c2O)c(O)c1=O`, for which the ID in experiment [1] is 0.7%; in [2] it was 8.5%; in [3], 5.5%; in experiment [4] it was 21%; in experiment [5] it was 13%; in experiment [6], 25%. Also, the ID turned out to be 34% in [7]; 1.9% in experiment [8]; 45% in experiment [9]; 21% in experiment [10]; 2.7% in experiment [11]; 35% in experiment [12]. In addition, the figures for the ID in experiment [13], in experiment [14] and in experiment [15] were 0.7%, 20% and 11%, respectively.

The values are drawn from ChEMBL document CHEMBL1128431, “Specific sequestering agents for the actinides. 28. Synthesis and initial evaluation of multidentate 4-carbamoyl-3-hydroxyl-1-methyl-2(1H)-pyridinone ligands for in vivo plutonium(IV) chelation” (1995).
